Data published in US9920058B2, “Molecules with potent DHFR binding affinity and antibacterial activity” (Georgia Tech Research Corporation, priority 2013, dated 2018).
≈ marks a conversion by molar mass, not a printed value. Read-outs that look alike come from different tables or passages of the source. Blank lines part the entries; values can stand above or below the compound they belong to.

How the values were obtained:
[1] = tested on: vancomycin-resistant E. faecium (ATCC700221) (VREF); assay: Antimicrobial growth inhibition (MIC), VREF
[2] = tested on: amphotericin-resistant Candida albicans (ARCA); assay: Antifungal growth inhibition (MIC), ARCA; assay type: cell-based; conditions: for MIC: read-out: ARCA (MIC)
[3] = tested on: colon carcinoma cells HCT-116; assay: Cytotoxicity assay on HCT-116; assay type: cell-based; conditions: for IC50: Homo sapiens, HCT-116
[4] = molecular target: dihydrofolate reductase (DHFR) from Escherichia coli (Escherichia coli, UniProt P0ABQ4); assay: biochemical; assay type: binding; conditions: for ΔTm: unit given in Table 4
Protocol: The thermal shift assay was performed in a control reaction mix containing 100 mM HEPES pH 7.3, 150 mM NaCl, 5× Sypro-orange (an extrinsic fluorophore reporter from Invitrogen), 10 micromolar of the protein dihydrofolate reductase in 20 μl reaction mix. The test reaction contained 1 mM of the said compound apart from all the other constituents as mentioned above. Protein melting curves were obtained from samples aliquoted in 96-well plates using a RealPlex quantitative PCR from Eppendorf. […] A heating ramp of 1 degree Celsius/min was used from 25 degree Celsius to 74 degree Celsius and one data point was acquired for each degree increment. Appropriate dye controls and protein controls were incorporated. All the experiments were done with minimum two replicates and the mean value of the replicate Y was considered for further analysis.
Protein melting curves were obtained from samples aliquoted in 96-well plates using a RealPlex quantitative PCR instrument from Eppendorf (Eppendorf, N.Y., USA), with Sypro orange dye from Invitrogen as the fluorescent probe. A uniform final concentration of 5× (supplied as a 5000× stock solution) was used in all experiments. […] A heating ramp of 1° C./min from 25° C. to 74° C. was used, and one data point acquired for each degree increment. For standardization, different buffers and pH were checked. Thereafter, 100 mM HEPES pH 7.3 and 150 mM NaCl were used in all unfolding experiments. The volume of each reaction was 20 μl, and appropriate dye and protein controls were included. All experiments were done with a minimum of two replicates, with the mean value considered for further analysis. […] An additional control to rule out drug-dye interaction was carried out with all the constituents kept constant except for the protein of interest. The protein/protein-drug curves were reported after subtracting the respective dye alone/drug-dye curves.
Each melting curve was assigned a quality score (Q), the ratio of the melting-associated increase in fluorescence (ΔFmelt) to the total fluorescence range (ΔFtotal). […] Though an arbitrary Q value cutoff was not applied to judge curve quality, the curves were manually curated with Q values reported.
Subsequent to standardization, the validity of the top 1% of […]^comb's predictions on the test set of eight diverse proteins was examined. To be conservative, we focused only on those protein/ligand pairs showing single sigmoidal thermal transition curves. The fit to Boltzmann's equation (Eq. 1) was employed to estimate the melting temperature from the observed intensity, I.
[formula] Imin and Imax are the minimum and maximum intensities; a denotes the slope of the curve at the transition midpoint temperate, Tm. To estimate thermodynamic parameters, both van't Hoff and Gibbs-Helmholtz analyses were done.
[formula] KL(Tm) is the ligand association constant and [L] is the free ligand concentration at Tm([LTm]˜[L]total, when [L]total>>the total concentration of protein. KD is the inverse of KL(Tm).

[5] = tested on: methicillin-resistant S. aureus (ATCC 33591) (MRSA); assay: Antimicrobial growth inhibition (MIC), MRSA
E. coli DH5α = assay: Antimicrobial growth inhibition (MIC), E. coli DH5α; conditions: Escherichia coli
[6] = tested on: multi-drug resistant E. coli SMS-3-4 (ATCC BAA-1743) (MDREC); assay: Antimicrobial growth inhibition (MIC), MDREC; conditions: Escherichia coli
[7] = tested on: several cancer cell lines including melanoma, prostrate, colon, and breast; conditions: cited from earlier work
[8] = Enterococcus faecium, ATCC700221, read-out: VREF (MIC), minimum inhibitory concentration required for 90% clearance
[9] = Table 6, ND: No significant inhibition, read-out: HCT-116 (IC-50), inhibitory concentration for 50% growth inhibition
[10] = Table 5, computed from the thermal shifts obtained, read-out: KD (Approx)
[11] = Candida albicans, Table 5, unit from Table 1, ND: non determinable/no significant inhibition
[12] = Table 5, unit from Table 6, ND: non determinable/no significant inhibition
[13] = Table 6, ND: No significant inhibition

Compound: CN(Cc1cnc2nc(N)nc(N)c2n1)c1ccc(C(=O)N[C@@H](CCC(=O)O)C(=O)O)cc1 [NSC740, methotrexate]
- MIC [1, 8]: 500 µg/mL (≈ 1100 µM)
- MIC ([2]; Candida albicans): 500 µg/mL (≈ 1100 µM)
- IC50 [3, 9]: 0.048 µg/mL (≈ 0.106 µM)

Compound: CCOc1ccc(NC(=O)c2cc3ccccc3cc2O)cc1 [NSC50690]
- Kd [4, 10]: 463 µM
- ΔTm ([4]; Table 5): 0.23 °C

Compound: Nc1ccc(NC(=O)c2ccc(C(=O)Nc3ccc(N)cc3)cc2)cc1 [NSC55152]
- Kd [4, 10]: 73.8 µM
- ΔTm ([4]; Table 5): 5.89 °C

Compound: Nc1ccc(-c2nc3nc(N)nc(N)c3nc2-c2ccc(N)cc2)cc1 [NSC61642, 6,7-bis(4-aminophenyl) pteridine-2,4-diamine, reference compound]
- MIC [2, 11]: 250 µg/mL (≈ 726 µM)
- Kd [4, 10]: 2.03 µM

Compound: O=C(Nc1ccc(Oc2ccc(NC(=O)Nc3ccc([N+](=O)[O-])cc3)cc2)cc1)Nc1ccc([N+](=O)[O-])cc1 [NSC80735]
- HCT-116 (IC-50) [3, 12]: 10.9 µg/mL
- Kd [4, 10]: 1.71 µM
- ΔTm ([4]; Table 5): 18.16 °C
- Kd ([4]; text b322, read-out: KD / affinity): 1.7 µM

Compound: C1=Cc2ccccc2Nc2ccccc21 [NSC123458]
- Kd [4, 10]: 5.64 µM
- ΔTm ([4]; Table 5): 14.17 °C

Compound: COc1cc(NCc2ccccc2O)c2ncccc2c1 [NSC130801]
- Kd [4, 10]: 75 µM
- ΔTm ([4]; Table 5): 5.84 °C

Compound: CC(C)=C(c1ccc(Cl)cc1)c1c(N)ncnc1N [NSC157522]
- Kd [4, 10]: 19.5 µM
- ΔTm ([4]; Table 5): 10.13 °C

Compound: O=C(Nc1ccc(C(=O)O)c(O)c1)c1ccccc1 [NSC159686]
- Kd [4, 10]: 12.7 µM
- ΔTm ([4]; Table 5): 11.52 °C

- MIC90 ([5]; Staphylococcus aureus, ATCC33591|MRSA, read-out: MIC (MIC-90, minimum inhibitory concentration for 90% growth inhibition)): 31.2 µg/mL (≈ 103 µM)
- MIC ([5]; Staphylococcus aureus, ATCC33591|MRSA, read-out: MRSA (MIC), minimum inhibitory concentration required for 90% clearance): 31.2 µg/mL (≈ 103 µM)
- MIC ([5]; Staphylococcus aureus, read-out: MRSA (MIC)): 31.2 µg/mL (≈ 103 µM)
- MIC90 ([1]; Enterococcus faecium, ATCC700221, read-out: MIC (MIC-90, minimum inhibitory concentration for 90% growth inhibition)): 31.2 µg/mL (≈ 103 µM)
- MIC ([1]; Enterococcus faecium, ATCC700221, read-out: VREF (MIC)): 31.2 µg/mL (≈ 103 µM)
- MIC [1, 8]: 31.2 µg/mL (≈ 103 µM)
- MIC90 ([2]; Candida albicans, read-out: MIC (MIC-90, minimum inhibitory concentration for 90% growth inhibition), Table 1, ARCA): 125 µg/mL (≈ 411 µM)
- MIC [2, 11]: 125 µg/mL (≈ 411 µM)
- MIC (E. coli DH5α; read-out: DH5α (MIC)): 7.81 µg/mL (≈ 25.7 µM)
- MIC (E. coli DH5α; read-out: DH5α (MIC), minimum inhibitory concentration required for 90% clearance): 7.81 µg/mL (≈ 25.7 µM)
- MIC90 (E. coli DH5α; read-out: MIC (MIC-90, minimum inhibitory concentration for 90% growth inhibition)): 7.81 µg/mL (≈ 25.7 µM)
- MIC ([6]; ATCCBAA1743, read-out: MDREC (MIC), minimum inhibitory concentration required for 90% clearance): 125 µg/mL (≈ 411 µM)
- MIC90 ([6]; ATCCBAA1743, read-out: MIC (MIC-90, minimum inhibitory concentration for 90% growth inhibition)): 125 µg/mL (≈ 411 µM)
Compound: Nc1ccc(Cn2ccc3c4c(N)nc(N)nc4ccc32)cc1 [NSC309401, 7-[(4-aminophenyl)methyl]-7H-pyrrolo[3,2-f]quinazoline-1,3-diamine]
- IC50 ([3]; Table 5, unit from Table 6, ND: non determinable/no significant inhibition, read-out: HCT-116 (IC-50)): 0.13 µg/mL (≈ 0.427 µM)
- IC50 [3, 9]: 0.13 µg/mL (≈ 0.427 µM)
- activity against cancer cell lines (potency not revealed) [7]: has activity

Compound: N/C(CC(=O)Nc1cc(C(F)(F)F)ccc1Cl)=N\O [NSC379536]
- Kd [4, 10]: 28.9 µM
- ΔTm ([4]; Table 5): 8.86 °C

- MRSA (MIC) [5, 12]: 31.25 µg/mL
- MRSA (MIC), minimum inhibitory concentration required for 90% clearance [5, 13]: 31.25 µg/mL
- VREF (MIC) [1, 12]: 31.25 µg/mL
- VREF (MIC), minimum inhibitory concentration required for 90% clearance [1, 13]: 31.25 µg/mL
- ARCA (MIC) ([2]; Table 5, unit from Table 1, ND: non determinable/no significant inhibition): 250 µg/mL
Compound: CCc1nc(N)nc(N)c1-c1ccc(N(C)Cc2ccccc2)c([N+](=O)[O-])c1 [NSC382035, methylbezoprim, reference compound]
- HCT-116 (IC-50) [3, 12]: 0.182 µg/mL
- HCT-116 (IC-50), inhibitory concentration for 50% growth inhibition [3, 13]: 0.182 µg/mL

Compound: C#CCC(Cc1cnc2nc(N)nc(N)c2n1)c1ccc(C(=O)N[C@@H](CCC(=O)O)C(=O)O)cc1 (stereo partly drawn) [NSC754230, pralatrexate, reference compound]
- IC50 [3, 9]: < 0.031 µg/mL
- Kd [4, 10]: 0.499 µM
